Test results: ChEMBL document CHEMBL1133460, “Synthesis and biological evaluation of certain alpha,beta-unsaturated ketones and their corresponding fused pyridines as antiviral and cytotoxic agents” (J Med Chem, 2000); call rule not given here
≈ marks a conversion by molar mass, not a printed value. Where “and” joins values, the source holds several entries; their conditions need not be identical. Identical values can stand only once.

Key:
Breast cancer cell line [1] = test: In vitro growth inhibitory concentration against breast cancer cell lines; assay type: functional; conditions: Homo sapiens
[2] = Full panel mean-graph midpoint (MG-MID)
[3] = tested on: Panel renal (Carcinoma cell lines); test: In vitro growth inhibitory concentration against renal cancer cell lines; assay type: functional; conditions: Homo sapiens
[4] = In vitro growth inhibitory concentration against colon cancer tumor cell lines; assay type: functional; conditions: Homo sapiens
[5] = tested on: Panel prostate (Carcinoma cell lines); test: In vitro growth inhibitory concentration against prostate cancer cell lines; assay type: functional; conditions: Homo sapiens
[6] = tested on: Panel CNS (Carcinoma cell lines); test: In vitro growth inhibitory concentration against CNS cancer cell lines; assay type: functional; conditions: Homo sapiens
Ovarian cancer cell line [7] = test: In vitro median growth inhibitory concentration against ovarian cancer cell lines; assay type: functional; conditions: Homo sapiens
Ovarian cancer cell line [8] = test: In vitro growth inhibitory concentration against ovarian cancer cell lines; assay type: functional; conditions: Homo sapiens
[9] = tested on: Panel leukemia (Carcinoma cell lines); test: In vitro median growth inhibitory conc. against leukemia was estimated.; assay type: functional; conditions: Homo sapiens
MT4 = test: In vitro inhibitory activity against uninfected T4 cells; assay type: functional, cell-based; conditions: Homo sapiens
[10] = tested on: Panel renal (Carcinoma cell lines); test: In vitro median growth inhibitory concentration against renal cancer cell lines; assay type: functional; conditions: Homo sapiens
Homo sapiens = species on record: Homo sapiens; test: Selectivity ratio between the full panel MG-MID and leukemia subpanel MG-MID was determined.; assay type: functional
[11] = tested on: Panel prostate (Carcinoma cell lines); test: In vitro median growth inhibitory concentration against prostate cancer cell lines; assay type: functional; conditions: Homo sapiens
[12] = tested on: Panel melanoma (Carcinoma cell lines); test: In vitro median growth inhibitory concentration against melanoma cell lines; assay type: functional; conditions: Homo sapiens
[13] = In vitro median growth inhibitory concentration against colon cancer cell lines; assay type: functional; conditions: Homo sapiens
Breast cancer cell line [14] = test: In vitro median growth inhibitory concentration against breast cancer cell lines; assay type: functional; conditions: Homo sapiens
[15] = tested on: Panel CNS (Carcinoma cell lines); test: In vitro median growth inhibitory concentration against CNS cancer cell lines; assay type: functional; conditions: Homo sapiens
NSCLC [16] = test: In vitro growth inhibitory concentration against non-small-cell lung cancer; assay type: functional; conditions: Homo sapiens
[17] = tested on: Human immunodeficiency virus 1; test: In vitro effective concentration against HIV-1 cytopathic effect in T4 cells; Inactive; assay type: functional, organism-based
NSCLC [18] = test: In vitro median growth inhibitory concentration against non-small-cell lung cancer; assay type: functional; conditions: Homo sapiens
[19] = tested on: Panel melanoma (Carcinoma cell lines); test: In vitro growth inhibitory concentration against melanoma cancer cell lines; assay type: functional; conditions: Homo sapiens
[20] = tested on: Panel leukemia (Carcinoma cell lines); test: In vitro growth inhibitory concentration against leukemia tumor cell lines; assay type: functional; conditions: Homo sapiens
Tumor cell line [21] = test: Median lethal concentration was estimated; assay type: ADME, cell-based; conditions: human
[22] = Full panel mean-graph midpoint (MG-MID).
[23] = In vitro effective concentration against HIV-1 cytopathic effect in T4 cells; assay type: functional, cell-based; conditions: Homo sapiens
Tumor cell line [24] = test: In vitro for median growth inhibitory concentration against melanoma cell lines; assay type: functional; conditions: Homo sapiens
Tumor cell line [25] = test: In vitro for median growth inhibitory concentration against breast cancer cell lines; assay type: functional; conditions: Homo sapiens
Tumor cell line [26] = test: In vitro for median growth inhibitory concentration against ovarian cancer cell lines; assay type: functional; conditions: Homo sapiens
Tumor cell line [27] = test: In vitro for median growth inhibitory concentration against prostate cancer cell lines; assay type: functional; conditions: Homo sapiens
Tumor cell line [28] = test: In vitro for median growth inhibitory concentration against CNS cancer cell lines; assay type: functional; conditions: Homo sapiens
Tumor cell line [29] = test: In vitro for median growth inhibitory concentration against renal cancer cell lines; assay type: functional; conditions: Homo sapiens
Tumor cell line [30] = test: In vitro for median growth inhibitory conc. against leukemia (compounds full panel MG-MID/leukemia subpanel MG-MID); assay type: functional; conditions: Homo sapiens
Tumor cell line [31] = test: In vitro for growth inhibitory concentration against non small lung cancer cell lines; assay type: functional; conditions: Homo sapiens
Tumor cell line [32] = test: In vitro for median growth inhibitory concentration against non small lung cancer cell lines; assay type: functional; conditions: Homo sapiens
Tumor cell line [33] = test: In vitro for median growth inhibitory concentration against colon cancer cell lines; assay type: functional; conditions: Homo sapiens
Human alphaherpesvirus 1 [34] = test: concentration caused 50% loss of the monolayer present around the viral plaques in ug/mL.; assay type: functional, organism-based
Human alphaherpesvirus 1 [35] = test: 50% loss of the monolayer present around the viral plaques in uM; assay type: functional, organism-based
Human alphaherpesvirus 1 [36] = test: Minimum antiviral concentration proved to be lethal to viral population in uM; assay type: functional
Human alphaherpesvirus 1 [37] = test: In vitro antiviral activity against Herpes Simplex-1 virus (HSV-1) expressed as percent reduction in the number of viral plaques; assay type: functional; set-up: concentration or dose not given beside the values
Human alphaherpesvirus 1 [38] = test: Minimum antiviral concentration proved to be lethal to viral population in ug/mL.; assay type: functional

Compound	TGI (Breast cancer cell line [1])	MG-MID [2]	TGI [3]	TGI [4]	TGI [5]	TGI [6]	GI50 (Ovarian cancer cell line [7])	TGI (Ovarian cancer cell line [8])	GI50 [9]	IC50 (MT4)	GI50 [10]	Ratio (Homo sapiens)	GI50 [11]	GI50 [12]	GI50 [13]	GI50 (Breast cancer cell line [14])	GI50 [15]	EC50 [17]	GI50 (NSCLC [18])	TGI [19]	also measured
COc1ccc(/C=C2\CN(C)Cc3c2nc(O)c(C#N)c3-c2ccc(OC)cc2)cc1	> 100 µM	52.5 µM and 95.8 µM	87.8 µM	> 100 µM	> 100 µM	> 100 µM	51.8 µM	> 100 µM	35 µM	104 µM	61.2 µM	1.5	70.9 µM	79.9 µM	60.5 µM	66.9 µM	44.9 µM	Not Active	66.6 µM	> 100 µM	TGI (NSCLC [16]): > 100 µM; TGI [20]: 80.7 µM
CN1C/C(=C\c2cccs2)C2=NN(c3ccccc3)C(c3cccs3)C2C1 (stereo not drawn)	> 100 µM	72.9 µM	> 100 µM	87.1 µM	> 100 µM	> 100 µM	24.2 µM	> 100 µM	2.2 µM	9.1 µM	65.3 µM	3.9	19.3 µM	42.5 µM	3.8 µM	23.6 µM	35.7 µM	Not Active	20.8 µM	> 100 µM	LC50 (Tumor cell line [21]): 95.8 µM; TGI (NSCLC [16]): > 100 µM; TGI [20]: 52.2 µM; MG-MID [22]: 8.5 µM
Cc1cn([C@H]2C[C@H](N=[N+]=[N-])[C@@H](CO)O2)c(=O)[nH]c1=O [ZIDOVUDINE]										35.6 µM											EC50 [23]: 0.0007 µM
CN1CC2=C(OC(N)=C(C#N)C2c2cccs2)/C(=C/c2cccs2)C1 (stereo not drawn)	57.7 µM	57.8 µM	81.6 µM	87.3 µM	90.9 µM	> 100 µM		73.2 µM		9 µM								Not Active		87 µM	GI50 (Tumor cell line [24]): 36.3 µM; TGI (Tumor cell line [25]): 27.9 µM; GI50 (Tumor cell line [26]): 25 µM; GI50 (Tumor cell line [27]): 13.5 µM; GI50 (Tumor cell line [28]): 42.2 µM; GI50 (Tumor cell line [29]): 32.5 µM; GI50 (Tumor cell line [30]): 3.2 µM; TGI (Tumor cell line [31]): 75.5 µM; GI50 (Tumor cell line [32]): 16.3 µM; GI50 (Tumor cell line [33]): 17.3 µM; TGI [20]: 27.6 µM; MG-MID [22]: 11.6 µM
Cc1ccc(/C=C2\CN(C)CC3C2=NN(c2ccccc2)C3c2ccc(C)cc2)cc1 (stereo not drawn)		81 µM					92.8 µM		37.4 µM	> 200 µM	83.7 µM	2.2	69.5 µM	77.9 µM	> 100 µM	> 100 µM	77 µM	Not Active	97.4 µM		
Cc1ccc(/C=C2\CN(C)Cc3c2nc(O)c(C#N)c3-c2ccc(C)cc2)cc1										> 200 µM								Not Active			
CN1C/C(=C\c2cccs2)C(O)/C(=C/c2cccs2)C1 (stereo not drawn)	96.8 µM	77.1 µM and 97.7 µM	> 100 µM	> 100 µM	> 100 µM	> 100 µM	81.4 µM	> 100 µM	32.5 µM	126 µM	96.2 µM	2.4	> 100 µM	92.5 µM	85.8 µM	84.3 µM	> 100 µM	Not Active	83.9 µM	> 100 µM	TGI (NSCLC [16]): > 100 µM; TGI [20]: 78.1 µM
CN1CC2=C(N=C(S)NC2c2cccs2)/C(=C/c2cccs2)C1 (stereo not drawn)	98.1 µM	53.5 µM and 95.8 µM	> 100 µM	> 100 µM	> 100 µM	> 100 µM	65.5 µM	> 100 µM	22.4 µM	34 µM	75 µM	2.4	> 100 µM	60.5 µM	70.5 µM	45.1 µM	76.1 µM	Not Active	67.2 µM	> 100 µM	IC50 (Human alphaherpesvirus 1 [34]): 0.15 µg/mL (≈ 0.417 µM); IC50 (Human alphaherpesvirus 1 [35]): 0.58 µM; MAC (Human alphaherpesvirus 1 [36]): 0.29 µM; Reduction (Human alphaherpesvirus 1 [37]): 27%; MAC (Human alphaherpesvirus 1 [38]): 0.1 µg/mL; TGI (NSCLC [16]): > 100 µM; TGI [20]: 69.8 µM
COc1ccc(/C=C2\CN(C)CC3=C2N=C(S)NC3c2ccc(OC)cc2)cc1 (stereo not drawn)	68.1 µM	4.9 µM	97.2 µM	76.3 µM	30.1 µM	81.9 µM	5 µM	76.4 µM	2 µM	6.8 µM	5.9 µM	2.5	9.1 µM	11.7 µM	4 µM	11.1 µM	30 µM	Not Active	6.5 µM	83.1 µM	LC50 (Tumor cell line [21]): 91.8 µM; TGI (NSCLC [16]): 93.6 µM; TGI [20]: 36.3 µM; MG-MID [22]: 56.3 µM
